Source: the NIST ThermoML archive (doi:10.1021/je800248w)
± gives the expanded uncertainty stated by the source.

Legend:
[1] = excess molar enthalpy (molar enthalpy of mixing); xn = mol fraction of the nth substance listed; conditions: 101 kPa, Liquid, Calvet calorimetry
[2] = molar heat capacity at constant pressure; xn = mol fraction of the nth substance listed; conditions: 101.3 kPa, Liquid, Small sample (50 mg) DSC

With CCn1cc[n+](C)c1.O=C([O-])C(F)(F)F [1-ethyl-3-methylimidazolium trifluoroacetate] + O the excess molar enthalpy ([1]; 313.04 K, x2 = 0.2499) was -0.315 ± 0.0129 kcal/mol, the excess molar enthalpy ([1]; 313.04 K, x2 = 0.25) was -0.315 ± 0.0129 kcal/mol and the excess molar enthalpy ([1]; 313.04 K, x2 = 0.498) was -0.511 ± 0.0208 kcal/mol. The excess molar enthalpy ([1]; 313.04 K, x2 = 0.4981) was -0.511 ± 0.0208 kcal/mol, the excess molar enthalpy ([1]; 313.04 K, x2 = 0.7483) was -0.49 ± 0.0198 kcal/mol and the excess molar enthalpy ([1]; 313.04 K, x2 = 0.7484) was -0.49 ± 0.0198 kcal/mol. The excess molar enthalpy ([1]; 323.04 K, x2 = 0.2474) was -0.312 ± 0.0127 kcal/mol, the excess molar enthalpy ([1]; 323.04 K, x2 = 0.2485) was -0.313 ± 0.0127 kcal/mol and the excess molar enthalpy ([1]; 323.04 K, x2 = 0.4967) was -0.501 ± 0.0203 kcal/mol. The excess molar enthalpy ([1]; 323.04 K, x2 = 0.4993) was -0.502 ± 0.0206 kcal/mol, the excess molar enthalpy ([1]; 323.04 K, x2 = 0.7472) was -0.469 ± 0.0191 kcal/mol and the excess molar enthalpy ([1]; 323.04 K, x2 = 0.7482) was -0.468 ± 0.0191 kcal/mol. For the same compound, the excess molar enthalpy ([1]; 333.06 K, x2 = 0.2464) was -0.311 ± 0.0127 kcal/mol, the excess molar enthalpy ([1]; 333.06 K, x2 = 0.2477) was -0.312 ± 0.0127 kcal/mol and the excess molar enthalpy ([1]; 333.06 K, x2 = 0.4934) was -0.492 ± 0.0201 kcal/mol. The excess molar enthalpy ([1]; 333.06 K, x2 = 0.4966) was -0.494 ± 0.0201 kcal/mol, the excess molar enthalpy ([1]; 333.06 K, x2 = 0.7466) was -0.449 ± 0.0182 kcal/mol and the excess molar enthalpy ([1]; 333.06 K, x2 = 0.7476) was -0.448 ± 0.0182 kcal/mol. For the same compound, the excess molar enthalpy ([1]; 348.06 K, x2 = 0.2486) was -0.312 ± 0.0127 kcal/mol, the excess molar enthalpy ([1]; 348.06 K, x2 = 0.2489) was -0.311 ± 0.0127 kcal/mol and the excess molar enthalpy ([1]; 348.06 K, x2 = 0.4979) was -0.478 ± 0.0194 kcal/mol. It also gave an excess molar enthalpy ([1]; 348.06 K, x2 = 0.4994) of -0.478 ± 0.0194 kcal/mol, an excess molar enthalpy ([1]; 348.06 K, x2 = 0.748) of -0.412 ± 0.0167 kcal/mol and an excess molar enthalpy ([1]; 348.06 K, x2 = 0.7484) of -0.411 ± 0.0167 kcal/mol. The “molar heat capacity at constant pressure” value ([2]; 283.15 K, x2 = 0) was 308 ± 25 J/K/mol, the “molar heat capacity at constant pressure” value ([2]; 283.15 K, x2 = 0.2025) was 264 ± 21 J/K/mol and the “molar heat capacity at constant pressure” value ([2]; 283.15 K, x2 = 0.3973) was 226 ± 18 J/K/mol. For the same compound, the “molar heat capacity at constant pressure” value ([2]; 283.15 K, x2 = 0.5817) was 182 ± 15 J/K/mol, the “molar heat capacity at constant pressure” value ([2]; 283.15 K, x2 = 0.7562) was 139 ± 11 J/K/mol and the “molar heat capacity at constant pressure” value ([2]; 283.15 K, x2 = 0.842) was 117 ± 10 J/K/mol. The “molar heat capacity at constant pressure” value ([2]; 283.15 K, x2 = 0.9256) was 99 ± 8 J/K/mol, the “molar heat capacity at constant pressure” value ([2]; 283.15 K, x2 = 0.9668) was 87 ± 7 J/K/mol and the “molar heat capacity at constant pressure” value ([2]; 283.15 K, x2 = 0.9912) was 78 ± 6 J/K/mol. For the same compound, the “molar heat capacity at constant pressure” value ([2]; 293.15 K, x2 = 0) was 313 ± 25 J/K/mol, the “molar heat capacity at constant pressure” value ([2]; 293.15 K, x2 = 0.2025) was 269 ± 22 J/K/mol and the “molar heat capacity at constant pressure” value ([2]; 293.15 K, x2 = 0.3973) was 231 ± 19 J/K/mol. The “molar heat capacity at constant pressure” value ([2]; 293.15 K, x2 = 0.5817) was 186 ± 15 J/K/mol, the “molar heat capacity at constant pressure” value ([2]; 293.15 K, x2 = 0.7562) was 143 ± 12 J/K/mol and the “molar heat capacity at constant pressure” value ([2]; 293.15 K, x2 = 0.842) was 120 ± 10 J/K/mol. The “molar heat capacity at constant pressure” value ([2]; 293.15 K, x2 = 0.9256) was 100 ± 8 J/K/mol, the “molar heat capacity at constant pressure” value ([2]; 293.15 K, x2 = 0.9668) was 90 ± 7 J/K/mol and the “molar heat capacity at constant pressure” value ([2]; 293.15 K, x2 = 0.9912) was 80 ± 7 J/K/mol. For the same compound, the “molar heat capacity at constant pressure” value ([2]; 303.15 K, x2 = 0) was 320 ± 26 J/K/mol, the “molar heat capacity at constant pressure” value ([2]; 303.15 K, x2 = 0.2025) was 274 ± 22 J/K/mol and the “molar heat capacity at constant pressure” value ([2]; 303.15 K, x2 = 0.3973) was 238 ± 19 J/K/mol. For the same compound, the “molar heat capacity at constant pressure” value ([2]; 303.15 K, x2 = 0.5817) was 191 ± 16 J/K/mol, the “molar heat capacity at constant pressure” value ([2]; 303.15 K, x2 = 0.7562) was 147 ± 12 J/K/mol and the “molar heat capacity at constant pressure” value ([2]; 303.15 K, x2 = 0.842) was 122 ± 10 J/K/mol. The “molar heat capacity at constant pressure” value ([2]; 303.15 K, x2 = 0.9256) was 102 ± 8 J/K/mol, the “molar heat capacity at constant pressure” value ([2]; 303.15 K, x2 = 0.9668) was 91 ± 7 J/K/mol and the “molar heat capacity at constant pressure” value ([2]; 303.15 K, x2 = 0.9912) was 80 ± 7 J/K/mol. For the same compound, the “molar heat capacity at constant pressure” value ([2]; 313.15 K, x2 = 0) was 324 ± 26 J/K/mol, the “molar heat capacity at constant pressure” value ([2]; 313.15 K, x2 = 0.2025) was 276 ± 22 J/K/mol and the “molar heat capacity at constant pressure” value ([2]; 313.15 K, x2 = 0.3973) was 241 ± 20 J/K/mol. The “molar heat capacity at constant pressure” value ([2]; 313.15 K, x2 = 0.5817) was 194 ± 16 J/K/mol, the “molar heat capacity at constant pressure” value ([2]; 313.15 K, x2 = 0.7562) was 150 ± 12 J/K/mol and the “molar heat capacity at constant pressure” value ([2]; 313.15 K, x2 = 0.842) was 124 ± 10 J/K/mol. For the same compound, the “molar heat capacity at constant pressure” value ([2]; 313.15 K, x2 = 0.9256) was 103 ± 8 J/K/mol, the “molar heat capacity at constant pressure” value ([2]; 313.15 K, x2 = 0.9668) was 92 ± 7 J/K/mol and the “molar heat capacity at constant pressure” value ([2]; 313.15 K, x2 = 0.9912) was 81 ± 7 J/K/mol. The “molar heat capacity at constant pressure” value ([2]; 323.15 K, x2 = 0) was 328 ± 27 J/K/mol, the “molar heat capacity at constant pressure” value ([2]; 323.15 K, x2 = 0.2025) was 280 ± 23 J/K/mol and the “molar heat capacity at constant pressure” value ([2]; 323.15 K, x2 = 0.3973) was 245 ± 20 J/K/mol. The “molar heat capacity at constant pressure” value ([2]; 323.15 K, x2 = 0.5817) was 198 ± 16 J/K/mol, the “molar heat capacity at constant pressure” value ([2]; 323.15 K, x2 = 0.7562) was 153 ± 12 J/K/mol and the “molar heat capacity at constant pressure” value ([2]; 323.15 K, x2 = 0.842) was 126 ± 10 J/K/mol. The “molar heat capacity at constant pressure” value ([2]; 323.15 K, x2 = 0.9256) was 104 ± 8 J/K/mol, the “molar heat capacity at constant pressure” value ([2]; 323.15 K, x2 = 0.9668) was 92 ± 7 J/K/mol and the “molar heat capacity at constant pressure” value ([2]; 323.15 K, x2 = 0.9912) was 81 ± 7 J/K/mol. For the same compound, the “molar heat capacity at constant pressure” value ([2]; 333.15 K, x2 = 0) was 332 ± 27 J/K/mol, the “molar heat capacity at constant pressure” value ([2]; 333.15 K, x2 = 0.2025) was 285 ± 23 J/K/mol and the “molar heat capacity at constant pressure” value ([2]; 333.15 K, x2 = 0.3973) was 251 ± 20 J/K/mol. The “molar heat capacity at constant pressure” value ([2]; 333.15 K, x2 = 0.5817) was 201 ± 16 J/K/mol, the “molar heat capacity at constant pressure” value ([2]; 333.15 K, x2 = 0.7562) was 155 ± 13 J/K/mol and the “molar heat capacity at constant pressure” value ([2]; 333.15 K, x2 = 0.842) was 127 ± 10 J/K/mol. For the same compound, the “molar heat capacity at constant pressure” value ([2]; 333.15 K, x2 = 0.9256) was 104 ± 8 J/K/mol, the “molar heat capacity at constant pressure” value ([2]; 333.15 K, x2 = 0.9668) was 92 ± 7 J/K/mol and the “molar heat capacity at constant pressure” value ([2]; 333.15 K, x2 = 0.9912) was 81 ± 7 J/K/mol. The “molar heat capacity at constant pressure” value ([2]; 343.15 K, x2 = 0) was 337 ± 27 J/K/mol, the “molar heat capacity at constant pressure” value ([2]; 343.15 K, x2 = 0.2025) was 290 ± 24 J/K/mol and the “molar heat capacity at constant pressure” value ([2]; 343.15 K, x2 = 0.3973) was 254 ± 21 J/K/mol. The “molar heat capacity at constant pressure” value ([2]; 343.15 K, x2 = 0.5817) was 204 ± 17 J/K/mol, the “molar heat capacity at constant pressure” value ([2]; 343.15 K, x2 = 0.7562) was 157 ± 13 J/K/mol and the “molar heat capacity at constant pressure” value ([2]; 343.15 K, x2 = 0.842) was 129 ± 10 J/K/mol. The “molar heat capacity at constant pressure” value ([2]; 343.15 K, x2 = 0.9256) was 105 ± 9 J/K/mol, the “molar heat capacity at constant pressure” value ([2]; 343.15 K, x2 = 0.9668) was 92 ± 7 J/K/mol and the “molar heat capacity at constant pressure” value ([2]; 343.15 K, x2 = 0.9912) was 81 ± 7 J/K/mol.
